The results in this text go back to patent publication US7807828B2, “Olanzapine analogs and methods of use thereof” (Hypnion, Inc., priority 2005, dated 2010).

SMILES strings stand for the structures. pKi: −log10 of the molar value. Several values for one entry are separate records, joined by “and”; a condition that tells them apart may be missing. Identical values can stand only once. Bounds are passed on as bounds.

The target of one assay is T1, H1 (hr) (Homo sapiens, UniProt P35367).
T1 construct: Novascreen, MDS, Cerep (assay providers)
Description: H1 (hr) Novascreen binding assay. Particulars: Table 7A; Ki in nM. As to the method:
(§1) Binding assays were performed using various sleep-inducing agents and derivatives selected from those listed in Table 1 in competitive binding assays with known standards for the H1 histamine receptor, and the M1, M2, and M3 muscarinic receptors, alpha 1 and alpha 2 receptors, D1 and D2 receptors, 5HT2a, 5HT2b, 5HT2c, 5HT2c, and 5HT7 receptors.
(§2) The histamine H1 assays are described in Chang, et al., Heterogeneity of Histamine H1-Receptors: Species Variation in [^3H]Mepyramine Binding of Brain Membranes. Journal of Neurochemistry. 32: 1653-1663 (1979); Martinez-Mir, M. I., Pollard, H., Moreau, J., et al. Three Histamine Receptors (H1, H2, and H3) Visualized in the Brain of Human and Non-Human Primates. Brain Res. 526: 322-327 (1990); Haaksma, E. E. J., Leurs, R. and Timmerman, H. Histamine Receptors: Subclasses and Specific Ligands. Pharmac. Ther. 47: 73-104 (1990). The muscarinic assays are described in Buckley, N. J., Bonner, T. I., Buckley, C. M., and Brann, M. R. Antagonist Binding Properties of Five Cloned Muscarinic Receptors Expressed in CHO-K1 Cells. Mol. Pharmacol. 35: 469-476 (1989). The assays were performed according to the preceding articles, with the following modifications. Chemical reagents in the following were obtained from Sigma, St. Louis, Mo.

For a further assay, the target named is T2, 5HT2a (hctx) (Homo sapiens, UniProt P28223).
T2 construct: (hctx); from tissue; host or cells: human cortex (my reading of 'hctx')
Description: 5HT2a (hctx) binding assay. Particulars: Table 7B; unit inferred.

Another assay deals with H1 (rat) (Rattus norvegicus, UniProt P31390). Kind of assay: H1 (rat) competitive binding assay. Conditions: Table 7A; Ki in nM. The protocol: as §1, §2
Assay [1] concerns the target T3, histamine H1 receptor (bovine) (Bos taurus, UniProt P30546).
T3 construct: the receptors were obtained from bovine cerebellar membrane tissue; from tissue; host or cells: bovine cerebellar membranes
Kind of assay: Histamine H1 binding assay, bovine cerebellar membranes, [3H]pyrilamine. Particulars: for Ki: Table 7A, Ki in nM.

For assay [2], the target named is T4, human recombinant M2 expressed in CHO cells (Homo sapiens, UniProt P08172).
T4 construct: purchased PerkinElmer, Inc., Wellesley, Mass; host or cells: CHO cells
T4 sequence (P08172 1-466): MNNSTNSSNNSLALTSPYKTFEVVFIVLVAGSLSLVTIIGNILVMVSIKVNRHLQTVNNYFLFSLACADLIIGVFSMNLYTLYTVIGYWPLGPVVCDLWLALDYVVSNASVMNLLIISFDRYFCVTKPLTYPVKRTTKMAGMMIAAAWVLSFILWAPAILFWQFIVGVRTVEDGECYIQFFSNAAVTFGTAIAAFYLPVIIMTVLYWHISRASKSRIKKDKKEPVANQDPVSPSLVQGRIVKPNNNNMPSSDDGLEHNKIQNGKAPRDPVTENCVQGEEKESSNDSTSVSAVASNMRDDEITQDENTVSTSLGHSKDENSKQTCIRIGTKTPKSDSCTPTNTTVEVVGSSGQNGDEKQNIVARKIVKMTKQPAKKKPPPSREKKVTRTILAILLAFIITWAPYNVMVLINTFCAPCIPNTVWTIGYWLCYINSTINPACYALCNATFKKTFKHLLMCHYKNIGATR
Kind of assay: M2 muscarinic receptor binding assay. Particulars: Table 7A, M1 M2 M3.

Another assay concerns the target 5HT2a (rat) (Rattus norvegicus, UniProt P14842). Kind of assay: 5HT2a (rat) binding assay. Particulars: Table 7A; unit inferred.
A further assay concerns the target D2 (h) (Homo sapiens, UniProt P14416). Description: Dopamine D2 binding assay. Conditions: Table 7A; unit inferred.
The target of assay [3] is T5, human recombinant M1 expressed in CHO cells (Homo sapiens, UniProt P11229).
T5 construct: purchased PerkinElmer, Inc., Wellesley, Mass; host or cells: CHO cells
T5 sequence (P11229 1-460): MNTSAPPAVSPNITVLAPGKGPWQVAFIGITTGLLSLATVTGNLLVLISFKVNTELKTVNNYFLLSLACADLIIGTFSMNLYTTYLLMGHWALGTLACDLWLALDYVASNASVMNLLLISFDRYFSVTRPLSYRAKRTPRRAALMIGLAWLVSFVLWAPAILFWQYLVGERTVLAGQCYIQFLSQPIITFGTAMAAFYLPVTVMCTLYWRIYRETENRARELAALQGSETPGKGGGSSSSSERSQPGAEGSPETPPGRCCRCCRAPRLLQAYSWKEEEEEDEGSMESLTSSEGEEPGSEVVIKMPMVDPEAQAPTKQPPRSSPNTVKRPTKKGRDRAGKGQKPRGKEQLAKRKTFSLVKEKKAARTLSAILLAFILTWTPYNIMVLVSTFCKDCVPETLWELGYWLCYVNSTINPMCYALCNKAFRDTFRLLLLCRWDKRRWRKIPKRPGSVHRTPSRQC
Description: M1 muscarinic receptor binding assay. Conditions: Table 7A, first line of column M1 M2 M3.

Chain of 5HT2a (rat) (P14842 whole entry): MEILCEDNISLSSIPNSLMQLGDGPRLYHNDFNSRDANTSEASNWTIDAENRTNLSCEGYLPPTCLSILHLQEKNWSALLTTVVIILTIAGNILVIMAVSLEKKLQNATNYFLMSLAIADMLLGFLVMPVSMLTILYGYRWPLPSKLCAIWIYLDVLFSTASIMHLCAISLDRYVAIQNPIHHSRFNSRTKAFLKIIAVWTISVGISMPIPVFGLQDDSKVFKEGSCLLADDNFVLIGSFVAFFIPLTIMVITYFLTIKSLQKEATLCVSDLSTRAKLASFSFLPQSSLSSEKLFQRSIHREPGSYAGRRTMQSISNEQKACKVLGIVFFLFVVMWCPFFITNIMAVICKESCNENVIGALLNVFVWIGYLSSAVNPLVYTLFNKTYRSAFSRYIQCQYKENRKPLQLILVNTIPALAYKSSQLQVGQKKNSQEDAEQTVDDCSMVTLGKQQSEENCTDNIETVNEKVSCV
T1 sequence (P35367 whole entry): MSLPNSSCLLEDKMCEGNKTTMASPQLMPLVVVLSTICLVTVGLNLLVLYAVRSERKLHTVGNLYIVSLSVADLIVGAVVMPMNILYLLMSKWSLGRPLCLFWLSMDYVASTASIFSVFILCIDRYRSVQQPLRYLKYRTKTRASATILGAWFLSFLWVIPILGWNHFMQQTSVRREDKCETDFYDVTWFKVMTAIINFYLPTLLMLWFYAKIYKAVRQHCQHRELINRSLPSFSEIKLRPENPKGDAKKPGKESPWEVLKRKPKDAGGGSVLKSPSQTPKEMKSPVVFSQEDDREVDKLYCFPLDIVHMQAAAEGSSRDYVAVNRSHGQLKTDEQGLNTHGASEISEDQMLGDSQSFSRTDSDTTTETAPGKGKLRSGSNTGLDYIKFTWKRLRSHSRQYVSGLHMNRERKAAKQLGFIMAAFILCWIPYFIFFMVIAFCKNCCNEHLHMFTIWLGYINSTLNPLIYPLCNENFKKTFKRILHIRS
Chain of D2 (h) (P14416 whole entry): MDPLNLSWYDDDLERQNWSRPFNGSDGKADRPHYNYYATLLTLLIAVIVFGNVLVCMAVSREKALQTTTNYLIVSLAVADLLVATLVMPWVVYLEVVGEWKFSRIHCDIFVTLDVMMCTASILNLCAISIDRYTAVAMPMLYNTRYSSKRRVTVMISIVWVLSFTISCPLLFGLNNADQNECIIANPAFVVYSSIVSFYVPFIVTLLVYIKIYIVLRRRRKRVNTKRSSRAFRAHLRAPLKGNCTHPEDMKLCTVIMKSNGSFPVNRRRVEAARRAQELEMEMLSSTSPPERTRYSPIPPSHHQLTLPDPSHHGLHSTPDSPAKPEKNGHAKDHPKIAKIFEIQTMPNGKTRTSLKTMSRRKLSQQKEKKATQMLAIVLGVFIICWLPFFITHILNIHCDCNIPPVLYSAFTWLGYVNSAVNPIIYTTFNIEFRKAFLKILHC
T2 sequence (P28223 whole entry): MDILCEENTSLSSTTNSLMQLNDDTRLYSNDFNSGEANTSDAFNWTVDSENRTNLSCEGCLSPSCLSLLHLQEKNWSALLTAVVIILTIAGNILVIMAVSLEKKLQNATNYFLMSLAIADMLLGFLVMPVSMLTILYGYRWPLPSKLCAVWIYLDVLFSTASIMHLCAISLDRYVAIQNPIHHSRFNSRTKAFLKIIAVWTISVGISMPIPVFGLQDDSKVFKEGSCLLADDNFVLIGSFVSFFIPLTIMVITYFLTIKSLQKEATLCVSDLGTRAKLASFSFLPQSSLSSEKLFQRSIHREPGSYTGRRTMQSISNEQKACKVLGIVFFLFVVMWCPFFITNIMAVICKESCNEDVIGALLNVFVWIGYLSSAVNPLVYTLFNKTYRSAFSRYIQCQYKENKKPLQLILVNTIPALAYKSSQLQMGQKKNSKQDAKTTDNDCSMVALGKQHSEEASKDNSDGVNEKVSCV
Chain of H1 (rat) (P31390 whole entry): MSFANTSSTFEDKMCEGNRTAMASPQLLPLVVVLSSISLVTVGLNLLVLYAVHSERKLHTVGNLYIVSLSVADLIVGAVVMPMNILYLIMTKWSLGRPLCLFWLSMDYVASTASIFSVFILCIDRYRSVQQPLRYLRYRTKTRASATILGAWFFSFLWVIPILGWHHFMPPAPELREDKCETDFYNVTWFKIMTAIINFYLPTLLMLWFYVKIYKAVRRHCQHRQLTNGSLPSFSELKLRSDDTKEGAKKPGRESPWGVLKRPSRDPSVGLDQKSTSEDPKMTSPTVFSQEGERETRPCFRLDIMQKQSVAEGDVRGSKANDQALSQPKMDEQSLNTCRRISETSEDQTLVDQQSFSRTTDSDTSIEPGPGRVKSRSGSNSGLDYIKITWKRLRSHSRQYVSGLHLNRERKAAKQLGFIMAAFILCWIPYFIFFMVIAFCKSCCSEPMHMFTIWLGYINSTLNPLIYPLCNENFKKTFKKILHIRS
T3 sequence (P30546 whole entry): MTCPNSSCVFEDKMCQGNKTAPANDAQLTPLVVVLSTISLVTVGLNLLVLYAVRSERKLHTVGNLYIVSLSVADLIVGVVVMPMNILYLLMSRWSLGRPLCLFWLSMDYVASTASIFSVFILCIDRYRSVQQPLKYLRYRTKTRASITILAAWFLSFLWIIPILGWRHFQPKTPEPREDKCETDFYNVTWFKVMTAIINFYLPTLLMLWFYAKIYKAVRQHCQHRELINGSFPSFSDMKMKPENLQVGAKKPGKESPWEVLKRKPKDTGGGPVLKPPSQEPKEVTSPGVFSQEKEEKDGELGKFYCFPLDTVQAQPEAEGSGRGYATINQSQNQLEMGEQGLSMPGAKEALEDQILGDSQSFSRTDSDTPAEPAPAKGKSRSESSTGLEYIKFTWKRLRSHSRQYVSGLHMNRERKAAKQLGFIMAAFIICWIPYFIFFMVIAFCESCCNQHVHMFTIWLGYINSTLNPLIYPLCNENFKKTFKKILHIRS

As to `Cc1cc2c(s1)Nc1ccccc1N=C2N1CCN(CC(C)(C)C(=O)O)CC1` [Compound 46], the Ki at H1 (hr) was 30 nM and 44 nM; at H1 (rat), 34 nM; in assay [1], 56 nM. The pKi on 5HT2a (hctx) was 6.19; in assay [2], less than 5.00; on 5HT2a (rat), 7.84; on D2 (h), 5.96 and 6.27 and 6.07; in assay [3], less than 5.00. For the same molecule, the “specificity for H1 over the muscarinic receptors” value in assay [1] (from Ki for H1 and M1, M2, M3) is reported as “highly specific for H1 over the muscarinic receptors”.
Regarding `Cc1cc2c(s1)Nc1ccccc1N=C2N1CCN(CC2(C(=O)O)CC2)CC1` [Compound 91], the Ki was 60.6 nM on H1 (hr), 53 nM on H1 (rat) and 30.1 nM in assay [1]. The pKi is 7.23 on 5HT2a (hctx); less than 5.00 in assay [2]; 7.88 at 5HT2a (rat); 6.69 on D2 (h); less than 5.00 in assay [3].
Take `CCc1cc2c(s1)Nc1ccccc1N=C2N1CCN(CC(C)(C)C(=O)O)CC1` [Compound 90]: the Ki on H1 (hr) came to 70 nM; at H1 (rat), 55.5 nM; in assay [1], 30 nM. The negative-log Ki (pKi) is 6.50 on 5HT2a (hctx); less than 5.00 in assay [2]; 7.98 on 5HT2a (rat); 6.71 at D2 (h); less than 5.00 in assay [3].
Take `CC(C)c1cc2c(s1)Nc1ccccc1N=C2N1CCN(CC(C)(C)C(=O)O)CC1` [Compound 94]: the Ki was determined as 62 nM on H1 (hr), 110 nM at H1 (rat) and 45.2 nM in assay [1]. Also, the pKi at 5HT2a (hctx) was 7.14; in assay [2], less than 5.00; on 5HT2a (rat), 8.09; on D2 (h) it was 6.97; in assay [3], less than 5.00.
Regarding `Cc1cc2c(s1)Nc1ccccc1N=C2N1CCN(CCC(=O)O)CC1` [Compound 92], the Ki on H1 (hr) is 119 nM; at H1 (rat), 95.6 nM; in assay [1] it was 53.5 nM. For the same molecule, the pKi on 5HT2a (hctx) was 6.63; in assay [2], less than 5.00; on 5HT2a (rat), 7.22; on D2 (h), 5.61; in assay [3], less than 5.00.
